In brackets after ≈: the same amount, converted by molar mass. Like-named read-outs stand apart in the source and are kept apart here.
Assays:
[1] = Thermodynamic solubility; type: physicochemical; conditions: thermodynamic from solid
[2] = human microsomes
[3] = Pharmacokinetics in CD-1 mice, subcutaneous route; type: in vivo; conditions: for half-life / Cmax / MRT: plasma
[4] = In vitro kinetic plasma solubility; type: physicochemical; conditions: plasma or biological fluid, kinetic from dmso stock
[5] = Binding to mouse plasma protein; type: in vitro ADME
[6] = in vitro; conditions: mouse, microsomes
[7] = in vitro; conditions: human, microsomes
[8] = system: SARS-CoV-2; test: SARS-CoV-2 replication in human Calu-3 lung cells (viral RNA by qPCR); type: cell-based; conditions: MOI 0.05
Procedure: (A) Calu-3 cells were infected with SARS-CoV-2 using a multiplicity of infection (MOI) of 0.05. […] DMSO was used as vehicle control (black bar). Total RNA was isolated from cell lysates, and viral RNA content was analyzed by quantitative polymerase chain reaction. Data are means ± SD of two biological experiments with two technical replicates each.

[9] = biological target: SARS-CoV-2 M^pro (Severe acute respiratory syndrome coronavirus 2, UniProt P0DTD1); test: Inhibition of purified recombinant SARS-CoV-2 Mpro; type: biochemical; conditions: 14b relative to 13b
[10] = system: Middle East respiratory syndrome–coronavirus (MERS-CoV); conditions: Huh7 cells; read-out: EC50 against MERS-CoV; cited from earlier work
[11] = system: enteroviruses; conditions: various cell lines; cited from earlier work
[12] = system: SARS-CoV; conditions: various cell lines; cited from earlier work
[13] = biological target: MERS-CoV M^pro (Middle East respiratory syndrome-related coronavirus, UniProt K9N7C7); test: biochemical
[14] = Binding to human plasma proteins; type: in vitro ADME
[15] = in vivo; conditions: CD-1, mouse, lung, inhaled, 3 mg kg^−1
[16] = system: SARS-CoV replicon; test: microbe, parasite or virus in culture; type: cell-based; conditions: Severe acute respiratory syndrome coronavirus, read-out: EC50 inhibition of RNA replication in SARS-CoV replicon

Chain of MERS-CoV M^pro (K9N7C7 3248-3553 limits assumed): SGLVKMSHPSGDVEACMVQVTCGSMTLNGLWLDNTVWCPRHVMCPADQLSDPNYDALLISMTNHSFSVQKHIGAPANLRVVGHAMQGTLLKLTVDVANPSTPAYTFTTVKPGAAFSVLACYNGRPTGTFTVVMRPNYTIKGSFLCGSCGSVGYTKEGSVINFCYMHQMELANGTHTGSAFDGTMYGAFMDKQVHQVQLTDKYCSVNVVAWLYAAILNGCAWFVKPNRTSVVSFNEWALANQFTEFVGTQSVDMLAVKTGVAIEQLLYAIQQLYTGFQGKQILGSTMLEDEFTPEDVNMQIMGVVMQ

CC(C)(C)OC(=O)Nc1cccn([C@@H](CC2CCCCC2)C(=O)N[C@@H](C[C@@H]2CCNC2=O)C(=O)C(=O)NC2CC2)c1=O [Compound 13a, tert-butyl (1-((S)-3-cyclohexyl-1-(((S)-4-(cyclopropylamino)-3,4-dioxo-1-((S)-2-oxopyrrolidin-3-yl)butan-2-yl)amino)-1-oxopropan-2-yl)-2-oxo-1,2-dihydropyridin-3-yl)carbamate]
solubility thermodynamic [1]: 530 µM (≈ 310 µg/mL) | residual compound remaining metabolically stable after 30 min [2]: ~60% | half-life ([3]; CD-1, mouse, mice): 1 h | time compound stayed in plasma ([3]; CD-1 mice, 20 mg/kg): up to 4 hours | time compound was excreted via urine ([3]; CD-1 mice, 20 mg/kg): up to 24 hours | concentration at 24 hours ([3]; mouse, bronchio-alveolar lavage fluid (BALF), sc, CD-1 mice, 20 mg/kg, read-out: concentration in bronchio-alveolar lavage fluid (BALF) at 24 hours): 52.7 ng/mL | concentration at 24 hours ([3]; mouse, lung, sc, CD-1 mice, 20 mg/kg, read-out: concentration in lung tissue at 24 hours): 135 ng/g | Cmax ([3]; mouse, sc, CD-1 mice, 20 mg/kg, read-out: maximum plasma concentration (Cmax)): 334 ng/mL | MRT ([3]; mouse, sc, CD-1 mice, 20 mg/kg, read-out: mean residence time): ~1.6 h | solubility kinetic [4]: 112 µM (≈ 65.6 µg/mL) | binding to mouse plasma protein [5]: 97% | microsomal CLint [6]: 32 µL/min/mg | microsomal CLint [7]: 21 µL/min/mg

Nc1cccn([C@@H](CC2CC2)C(=O)N[C@@H](C[C@@H]2CCNC2=O)C(=O)C(=O)NCc2ccccc2)c1=O [Compound 14b]
activity in human Calu-3 cells infected with SARS-CoV-2 ([8]; 5, 10, 20 or 40 μM): almost inactive | weakening of inhibitory potency on removing the Boc group (factor) [9]: ~ 2

O=C(/C=C/c1ccccc1)N[C@@H](CC1CCCCC1)C(=O)N[C@@H](C[C@@H]1CCNC1=O)C(=O)C(=O)NCc1ccccc1 [Compound 11r, reference compound]
solubility thermodynamic [1]: 41 µM (≈ 23.5 µg/mL) | EC50 [10]: 0.0004 µM | EC50 values against a whole range of enteroviruses [11]: low-μM | half-life ([3]; CD-1, mouse, mice): 0.3 h | solubility kinetic [4]: 6 µM (≈ 3.44 µg/mL) | binding to mouse plasma protein [5]: 99% | EC50 values against SARS-CoV [12]: low-μM

CC(C)(C)OC(=O)Nc1cccn([C@@H](CC2CC2)C(=O)N[C@@H](C[C@@H]2CCNC2=O)C(=O)C(=O)NCc2ccccc2)c1=O [Compound 13b]
IC50 [13]: 0.58 ± 0.22 µM | EC50 ([8]; Severe acute respiratory syndrome coronavirus 2, Calu-3, viral RNA by qPCR, read-out: EC50 in human Calu-3 cells infected with SARS-CoV-2): 4 to 5 µM | Cmax as percent of the Cmax detected for 13a ([3]; 13b 3 mg kg^−1 vs 13a 20 mg/kg): around 37% | concentration at 4 hours ([3]; mouse, lung, sc, CD-1 mice, 3 mg kg^−1, 4 hours, read-out: lung tissue level after 4 hours): ~13 ng/g | half-life ([3]; mouse, sc, CD-1 mice, 3 mg kg^−1): 1.8 h | Cmax ([3]; mouse, sc, CD-1 mice, 3 mg kg^−1, read-out: maximum plasma concentration (Cmax)): 126 ng/mL | MRT ([3]; mouse, sc, CD-1 mice, 3 mg kg^−1, read-out: mean residence time): 2.7 h | binding to human plasma proteins [14]: 90% | concentration at 24 hours [15]: 33 ng/g | EC50 [16]: 1.75 ± 0.25 µM

— PMC7164518 (Science (New York, N.y.), 2020)
